# Like-named read-outs stand apart in the source and are kept apart here. Square brackets hold non-standard residues; d marks the D form. Ends that are not written are not given here. pS = N[C@@H](COP(=O)(O)O)C(=O)O
# Key:
# [1] = HA binding assay (pulldown of fluorescein-labeled peptides, Langmuir isotherm fit); conditions: for Nmax (maximum monolayer surface concentration) / KA (binding affinity for HA): fit of Langmuir equation; for KA (binding affinity for HA): fluorescein-labeled peptide 0-100 μM, 0.3 mg HA nanocrystals
# Protocol: Fluorescein-labeled DSS-containing peptides of various lengths were subjected to pulldown assays as follows: Samples containing varying concentrations of fluorescein-labeled peptide (0-100 μM) and a fixed amount (0.3 mg) of HA nanocrystals with a specific surface area of 100 m^2/g (Berkeley Advanced Biomaterials, Berkeley, Calif.) were prepared. Measurements were taken of the absorbance of the labeled peptide at 488 nm (the peak absorbance of the fluorescein label) before and after exposure to the HA. The amount of peptide bound was calculated by comparing the ratio of the final (Af) and initial (Ai) absorbances to the initial concentration (C0) [Cbound=(Af/Ai)C0]. Plots were generated of the amount of peptide bound per meter squared of HA surface area vs. concentration of unbound peptide at equilibrium. The resulting isotherms were fit to the Langmuir isotherm, x/m=(KANmaxCeq)/(1+KACeq), where x/m represents the molar amount of peptide bound per unit of HA surface area, KA is the affinity constant of the peptide for the HA surface (L/Mol), Nmax is the maximum surface concentration (mol/m^2), and Ceq is the molar concentration of unbound peptide at equilibrium (Calis et al. (1995) Pharm Res., 12: 1072-1076).
# In order to quantitatively assess the strength of the DSS-HA interaction as well as to determine the roles of peptide length and sequence on binding, fluorescein-labeled, DSS-containing peptides of various lengths were subjected to pulldown assays as described in “Materials and Methods.”
# The experimental data were fit to the Langmuir isotherm, which describes the binding of molecules to surfaces with the conditions that (1) all binding sites have the same affinity for the peptide and (2) the peptide will form a monolayer on the surface but cannot accumulate to higher levels (Atkins (1994) Physical chemistry. Freeman, New York). The excellent fit of the Langmuir isotherm to the experimental data validates these conditions, and the constants obtained from this analysis were used for comparisons between peptides. As shown in FIG. 7A and summarized in Table 6, both the binding affinity (KA) and the monolayer concentration (NMax) of the various peptides increased with the number of DSS repeats per peptide. Additionally, several variant peptides were tested (FIGS. 7B, 7C, Table 6): a peptide containing a longer side chain at the first position (4ESS (SEQ ID NO:34)), peptides containing a more sterically hindered hydroxyl group at the second and third positions (4DTT (SEQ ID NO:36), 4NTT (SEQ ID NO:38), 4ETT (SEQ ID NO:37)), peptides lacking a charged group at the first position (4NSS (SEQ ID NO:35), 8ASS (SEQ ID NO:26)), and peptides lacking hydroxyl groups at the second and third positions (DAA-8 (SEQ ID NO:40), 8NAA (SEQ ID NO:41)).
# [2] = Binding of labeled peptides to carious lesions in teeth (CLSM); design: species or system human; conditions: labeled peptide, settings optimized per sample
# Description: Sections of human teeth containing obvious carious lesions, which consist of demineralized enamel, were polished and exposed to 5(6)-carboxyfluorescein-labeled DSS peptides and variants. The sections were washed extensively and imaged by CLSM using blue laser illumination (A=488 nm) and a FITC emission filter, with microscope and camera settings adjusted for each sample to optimize the signal detected from each peptide. The images were examined to identify the relative levels of peptide binding in healthy versus carious tissue. […] Given their ability to remineralize at sites of enamel degradation, they can also be used to initiate remineralization at sites of enamel degradation such as caries or injury sites without causing inappropriate nucleation on healthy tissue surfaces.
# [3] = Tissue specific binding of labeled peptides to sections of human teeth (CLSM); conditions: 5(6)-carboxyfluorescein-labeled peptide, ten minutes; for level of binding (staining) to tooth surfaces: identical settings
# Description: In order to investigate the tissue specificity of DSS peptide binding to tooth tissue, sections of human teeth were exposed to DSS peptides and variants, then imaged by CLSM. The peptides utilized for these experiments were 8DSS (SEQ ID NO:33), 8ASS (SEQ ID NO:26), 8DAA (SEQ ID NO:40), 8NAA (SEQ ID NO:41), 4DSS (SEQ ID NO:31), 4ESS (SEQ ID NO:34), 4NSS (SEQ ID NO:35), 4DTT (SEQ ID NO:36), 4ETT (SEQ ID NO:37), 4NTT (SEQ ID NO:38), and 6DSS (SEQ ID NO:32). Sagittal sections of human teeth extracted during normal clinical practice were polished and then incubated for ten minutes in a solution of the appropriate 5(6) carboxyfluorescein-labeled peptide (12.5pM) containing 10 mM NaCl and 50 mM HEPES, pH 7.0. Control samples were prepared without peptide. Samples were washed extensively after treatment and imaged by CLSM using blue laser illumination (A=488 nm) and a FITC emission filter, with identical camera and microscope settings for each sample. For each section, multiple scans were collected and assembled in an automated mode to generate panels of images representing an area of 13×13 mm, sufficient in most cases to encompass the whole section. […] Significant binding was also seen to the edges of the pulp cavity.
# [4] = system: Streptococcus mutans strain UA159; assay type: cell-based
# Protocol: The sequences of these fusion proteins are […] NO:24), and […] NO:25) (see SEQ ID NOs:27-29, respectively in WO 2007/038683). The antimicrobial activity of these peptides against anaerobic planktonic bacteria was determined by a modification of a previously described assay. Briefly, Streptococcus mutans strain UA159 cells were diluted to -1×10^5 cfu/mL in Todd-Hewitt (TH) broth medium and mixed with either suspended hydroxyapatite nanocrystals (Berkeley Advanced Biomaterials, Inc., 0.03% w/v) or, for control samples, an equivalent volume of deionized water. Aliquots were transferred into 96-well plates (Fisher). Serial dilutions of the peptides were then made and added to the bacteria. […] Nonetheless, some antimicrobial activity is retained by this peptide.
Substance,Nmax (maximum monolayer surface concentration) [1],KA (binding affinity for HA) [1],effect of sequence variation on binding affinity (KA) relative to DSS peptide of same size ([1]; in words),level of binding (staining) to tooth surfaces [3],specificity of binding to carious lesions versus healthy enamel [2],tissue pattern of binding in the tooth section [3],also measured
"4DS(P)S: phosphorylated DSS repeat peptide of the same size as 4DSS, SEQ ID NO:4 (D[pS]SD[pS]SD[pS]SD[pS]S)",1.2 × 10^−7 ± 5 × 10^−9 mol/m^2,"83,000 ± 9,000 M^−1",did not lead to a significant change in binding affinity,–,–,–,surface binding density relative to unphosphorylated peptide ([1]; in words): large increase in the surface binding density
"4NAA: printed once with SEQ ID NO:44; not among the synthesized peptides, probably a misprint (NAANAANAANAA; synthetic calcium-binding peptide 4NAA)",–,–,–,–,–,–,strength of staining of carious lesions [2]: exceptionally strong staining of carious lesions
"5DSS: peptide of five Asp-Ser-Ser repeats, SEQ ID NO:22 (DSSDSSDSSDSSDSS; synthetic calcium-binding peptide 5DSS, (DSS)-5)",9.2 × 10^−8 ± 2 × 10^−9 mol/m^2,"148,000 ± 14,000 M^−1",–,–,–,–,–
ASS ASS ASS ASS ASS ASS ASS ASS (ASSASSASSASSASSASSASSASS; synthetic calcium-binding peptide 8ASS),–,–,significant loss of binding affinity,lower levels of binding,highly specific binding to carious lesions,–,strength of staining of carious lesions [2]: exceptionally strong staining of carious lesions
DAA DAA DAA DAA DAA DAA DAA DAA (DAADAADAADAADAADAADAADAA; synthetic calcium-binding peptide 8DAA),6.0 × 10^−8 ± 6 × 10^−9 mol/m^2,"310,000 ± 74,000 M^−1",–,–,highly specific binding to carious lesions,primary binding to the root tip dentin and cortical enamel,"effect of sequence variation on binding affinity (KA) relative to DSS peptide of same size ([1]; in words, listed as DAA8): little observable effect; effect of sequence variation on binding affinity (KA) relative to DSS peptide of same size ([1]; in words, listed as DAA-8): within experimental error of the KA for 8DSS; strength of staining of carious lesions [2]: exceptionally strong staining of carious lesions"
DSS DSS (DSSDSS; synthetic calcium-binding peptide 2DSS),2 × 10^−8 ± 5 × 10^−9 mol/m^2,"57,000 ± 24,000 M^−1",–,–,–,–,–
DSS DSS DSS DSS (DSSDSSDSSDSS; synthetic calcium-binding peptide 4DSS),5.8 × 10^−8 ± 6 × 10^−9 mol/m^2,"94,000 ± 26,000 M^−1",–,–,highly specific binding to carious lesions,bound primarily to the mantle dentin,strength of staining of carious lesions [2]: exceptionally strong staining of carious lesions
"DSSDSSDSSDSSGGGRWRWRWF [4DSS-2c4, DSS DSS DSS DSS GGG RWRWRWF]",–,–,–,–,–,–,"MIC ([4]; planktonic S. mutans, with 0.03% (w/v) hydroxyapatite, approximately 24 hours): unaffected; MIC ([4]; strain UA159, 24 h): 52.5"
DTT DTT DTT DTT (DTTDTTDTTDTT; synthetic calcium-binding peptide 4DTT),1.3 × 10^−8 ± 1 × 10^−9 mol/m^2,"161,000 ± 79,000 M^−1",little observable effect,sharply reduced levels,–,binding patterns similar to those of 4DSS,–
ESS ESS ESS ESS (ESSESSESSESS; synthetic calcium-binding peptide 4ESS),4.6 × 10^−8 ± 4 × 10^−9 mol/m^2,"81,000 ± 18,000 M^−1",–,lower levels of binding,highly specific binding to carious lesions,–,strength of staining of carious lesions [2]: exceptionally strong staining of carious lesions
ETT ETT ETT ETT (ETTETTETTETT; synthetic calcium-binding peptide 4ETT),8.8 × 10^−8 ± 9 × 10^−9 mol/m^2,"79,000 ± 25,000 M^−1",little observable effect,sharply reduced levels,highly specific binding to carious lesions,binding patterns similar to those of 4DSS,–
"FHFHLHF [PL-135, FHFHLHF, reference compound]",–,–,–,–,–,–,"MIC ([4]; strain UA159, 24 h): 21"
"LKRFLKWFKRF [b-34, LKRF LKWF KRF, reference compound]",–,–,–,–,–,–,"MIC ([4]; strain UA159, 24 h): 5.6"
NAANAANAANAANAANAANAANAA [8NAA],–,–,–,very little binding to any healthy tissue,highly specific binding to carious lesions,did bind somewhat to a carious lesion,HA binding activity ([1]; in words): near-total loss of binding activity
NSS NSS NSS NSS (NSSNSSNSSNSS; synthetic calcium-binding peptide 4NSS),3.0 × 10^−8 ± 1 × 10^−9 mol/m^2,"16,000 ± 4,000 M^−1",significant loss of binding affinity,lower levels of binding,highly specific binding to carious lesions,–,–
NTT NTT NTT NTT (NTTNTTNTTNTT; synthetic calcium-binding peptide 4NTT),5.8 × 10^−8 ± 2 × 10^−8 mol/m^2,"17,000 ± 7,000 M^−1",significant loss of binding affinity,very low levels of binding to the healthy tooth tissue,–,strong binding to a fragment of periodontal bone,HA binding activity ([1]; in words): near-total loss of binding activity
"RWRWRWF [2c-4, RWRWRWF, reference compound]",–,–,–,–,–,–,"MIC ([4]; strain UA159, 24 h): 2"

# — patent US8889156B2, “Calcium-binding agents induce hair growth and/or nail growth” (priority 2009, dated 2014)
